Measured values published in patent US20180265911A1, “TRIPTYCENE DERIVATIVES FOR NUCLEIC ACID JUNCTION STABILIZATION” (THE TRUSTEES OF THE UNIVERSITY OF PENNSYLVANIA, priority 2015, published 2018).

Columns and labels:
A2780cis cells = experiment: Alamar blue cytotoxicity assay, A2780cis; assay type: cell-based, human
Description: (§1) All cell lines were maintained in a humidified incubator at 37° C. in 5% CO2. A2780 and A2780cis cells were cultured in RPMI 1640 (Corning Cellgro) supplemented with 10% fetal bovine serum (Giboc, Life Technologies), 1% L-glutamine (Corning Cellgro), penicillin and streptomycin (Corning Cellgro). Cells were seeded at a density of 2,000 cells/well in culture media (50 pt) in […] plates 24 hours prior to treatment. Cells were treated with DMSO (vehicle control), doxorubicin (positive control, 10 μM final), cisplatin (50 μM to 25 nM), or triptycenes (50 μM to 25 nM) for 72 hours at 37° C. with 5% CO2. DMSO concentrations were kept at 1%. Alamar blue (5 μL) was added and incubated for 4 hours. Fluorescence was measured at 590 nm. The vehicle control was taken as 100% cell viability and doxorubicin was taken as 0% viability.

[1] = test system: d(CAG)n(CTG) repeat nucleic acid junction; experiment: Fluorescence quenching assay, TNR 3WJ (Example 5); assay type: binding; conditions: comparison in words
Description: Fluorescence Quenching Assay: All experiments were conducted in 50 mM sodium phosphate buffer, pH 7.2. Fluorescence measurements were recorded with excitation at 495 nm and emission at 520 nm using 5 nm bandwidths on a Tecan M1000 plate reader. […] Samples were incubated for 2h and measured in triplicate in a 384-well plate.

A2780 cells = experiment: Alamar blue cytotoxicity assay, A2780; assay type: cell-based, human; conditions: Example 1 numbering, 72 hours, viability shown at 50 μM
Description: as §1

DNA 3WJ = experiment: UV thermal melting of DNA 3WJ (Example 1); assay type: binding; conditions: Example 1 numbering, DNA 3WJ 1 μM, ligand 4 μM, 10 mM CacoK pH 7.2
Description: (§2) An aqueous solution of 10 mM potassium cacodylate (CacoK), pH 7.2 was used as analysis buffer. DNA 3WJ and dsDNA were brought to a final concentration of 1 1.1.1\4 and 2 μM, respectively. Samples were heated to 90° C. for 5 min, cooled to room temperature slowly, then to 4° C. Samples were incubated for 1 hour at room temperature with 3 μL of ligand at a final concentration of 4 μM for DNA 3WJ. The concentration of the ligand was 8 μM for dsDNA. Denaturation was recorded at 260 nm from 5° C. to 90° C. with a heating rate of 0.5° C. min^−1. Upper and lower baselines were used to plot the fraction folded.

dsDNA = experiment: UV thermal melting of dsDNA (Example 1); assay type: binding; conditions: Example 1 numbering, dsDNA 2 μM, ligand 8 μM, 10 mM CacoK pH 7.2
Description: as §2

## NCCCCCCCNC(=O)c1ccc2c(c1)C1c3ccc(C(=O)NCCCCCCCN)cc3C2c2cc(C(=O)NCCCCCCCN)ccc21 [Trip 2 (Example 1), N^2,N^6,N^14-tris(7-aminoheptyl)-9,10-dihydro-9,10-[1,2]benzenoanthracene-2,6,14-tricarboxamide]
A2780cis cells; 50 µM
  viability of A2780cis cells: 6%

## NC(Cc1cnc[nH]1)C(=O)Nc1ccc2c(c1)C1c3ccc(NC(=O)C(N)Cc4cnc[nH]4)cc3C2c2cc(NC(=O)C(N)Cc3cnc[nH]3)ccc21 [Trip 4 (Example 3), (2S,2′S,2″S)—N,N′,N″-(9,10-dihydro-9,10-[1,2]benzenoanthracene-2,7,15-triyl)tris(2-amino-3-(1H-imidazol-5-yl)propanamide)]
[1]
  relative binding affinity toward the TNR junction: highest affinity

## CN(C)CCCNC(=O)c1ccc2c(c1)C1c3ccc(C(=O)NCCCN(C)C)cc3C2c2cc(C(=O)NCCCN(C)C)ccc21 [Trip 3 (Example 1), N^2,N^6,N^14-tris(3-(dimethylamino)propyl)-9,10-dihydro-9,10-[1,2]benzenoanthracene-2,6,14-tricarboxamide]
A2780cis cells; Example 1 numbering, cisplatin-resistant line, Alamar blue, 72 hours, viability shown at 50 μM
  cytotoxicity in A2780cis cells: No cytotoxic activity
A2780 cells
  cytotoxicity in A2780 cells: No cytotoxic activity

## CN(CCCN)CCCNC(=O)c1ccccc1 [Compound 4 (Example 1), N-(3-((3-aminopropyl)(methyl)amino)propyl)benzamide]
DNA 3WJ
  ΔTm, stabilization of DNA 3WJ: 2.0 °C
dsDNA
  ΔTm, dsDNA: −1.3 °C

## NCCCCC(N)C(=O)Nc1ccc2c(c1)C1c3ccc(NC(=O)C(N)CCCCN)cc3C2c2cc(NC(=O)C(N)CCCCN)ccc21 [Trip 3 (Example 3), (2S,2'S,2″S)—N,N′,N″-(9,10-dihydro-9,10-[1,2]benzenoanthracene-2,7,15-triyl)tris(2,6-diaminohexanamide)]
[1]
  relative binding affinity toward the TNR junction: highest affinity
